Experimental data: PubChem BioAssay AID248 (DTP/NCI, 2004)
“And” between values parts separate entries of the source, which are not always exact repeats. Identical values can stand only once. Toxic doses and inconclusive results are not listed. Cut-off read from the data, not from the text of the source: active = T/C of 150% or more; inactive = T/C below 125%.

System: L1210 leukemia ip in BDF1 mice, survival T/C
Experiment: NCI In Vivo Anticancer Drug Screen. Data for tumor model L1210 Leukemia (intraperitoneal) in B6D2F1 (BDF1) mice
Settings: endpoint: mean survival time, higher = longer survival
How it was run: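 Survival endpoint. Drug-treated group vs vehicle group, expressed as T divided by C. Tumor passaged by transplantation.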

[1] = dose: 100.0 mg/kg/injection, schedule: Q01DX001 (ip), vehicle: carboxymethylcellulose (CMC)
[2] = dose: 200.0 mg/kg/injection, schedule: Q01DX001 (ip), vehicle: carboxymethylcellulose (CMC)
[3] = dose: 400.0 mg/kg/injection, schedule: Q01DX001 (ip), vehicle: carboxymethylcellulose (CMC)

Measured: T/C

O=c1oc2c([N+](=O)[O-])cc([N+](=O)[O-])cc2c2ccccc12
inactive: dose: 50.0 mg/kg/injection, schedule: Q01DX001 (ip), vehicle: carboxymethylcellulose (CMC) 105 % of control | [1] 94 % of control | [2] 100 % of control | [3] 92 % of control

O=[N+]([O-])c1ccc(OCCCCOc2ccccc2)cc1
inactive: dose: 100.0 mg/kg/injection, schedule: Q01DX009 (ip), vehicle: saline 110 % of control | dose: 200.0 mg/kg/injection, schedule: Q01DX009 (ip), vehicle: saline 96 % of control | dose: 400.0 mg/kg/injection, schedule: Q01DX009 (ip), vehicle: saline 92 % of control

Cc1cc(=O)oc2ccc(OS(C)(=O)=O)cc12
inactive: dose: 50.0 mg/kg/injection, schedule: Q01DX009 (ip), vehicle: Klucel (hydroxypropylcellulose) (HPC) 90 % of control | dose: 100.0 mg/kg/injection, schedule: Q01DX009 (ip), vehicle: Klucel (hydroxypropylcellulose) (HPC) 101 % of control | dose: 200.0 mg/kg/injection, schedule: Q01DX009 (ip), vehicle: Klucel (hydroxypropylcellulose) (HPC) 90 % of control

CC(C)CC([NH-])C(=O)[O-].O=C(O)C(=O)O.[Co+3].[NH-]CCN(CC[NH-])CC[NH-]
inactive: dose: 50.0 mg/kg/injection, schedule: Q01DX001 (ip), vehicle: other 92 % of control | dose: 100.0 mg/kg/injection, schedule: Q01DX001 (ip), vehicle: other 100 % of control | dose: 200.0 mg/kg/injection, schedule: Q01DX001 (ip), vehicle: other 94 % of control | dose: 400.0 mg/kg/injection, schedule: Q01DX001 (ip), vehicle: other 86 % of control

COB(OC)C1CCCC1
inactive: dose: 100.0 mg/kg/injection, schedule: Q01DX001 (ip), vehicle: Klucel (hydroxypropylcellulose) (HPC) 92 % of control | dose: 200.0 mg/kg/injection, schedule: Q01DX001 (ip), vehicle: Klucel (hydroxypropylcellulose) (HPC) 95 % of control

CC12CCC3CC1OC(=O)C32 (stereo not drawn)
inactive: dose: 12.5 mg/kg/injection, schedule: Q01DX001 (ip), vehicle: saline 98 % of control | dose: 25.0 mg/kg/injection, schedule: Q01DX001 (ip), vehicle: saline 94 % of control | dose: 50.0 mg/kg/injection, schedule: Q01DX001 (ip), vehicle: saline 105 % of control

O=[N+]([O-])c1cc(Cl)cc2c1-c1ccc(Cl)cc1/C2=N\O
inactive: [1] 103 % of control | [2] 103 % of control | [3] 103 % of control

CS(=O)(=O)OCC(O)C(O)COS(C)(=O)=O (stereo not drawn)
inactive: dose: 50.0 mg/kg/injection, schedule: Q01DX010 (ip), vehicle: saline 93 % of control and 91 % of control | dose: 100.0 mg/kg/injection, schedule: Q01DX010 (ip), vehicle: saline 96 % of control | dose: 125.0 mg/kg/injection, schedule: Q01DX Z (ip), vehicle: carboxymethylcellulose (CMC) 103 % of control | dose: 200.0 mg/kg/injection, schedule: Q01DX010 (ip), vehicle: saline 102 % of control and 108 % of control | dose: 250.0 mg/kg/injection, schedule: Q01DX Z (ip), vehicle: carboxymethylcellulose (CMC) 112 % of control | dose: 400.0 mg/kg/injection, schedule: Q01DX010 (ip), vehicle: saline 117 % of control | dose: 440.0 mg/kg/injection, schedule: Q01DX001 (ip), vehicle: carboxymethylcellulose (CMC) 101 % of control and 107 % of control | dose: 500.0 mg/kg/injection, schedule: Q01DX Z (ip), vehicle: carboxymethylcellulose (CMC) 123 % of control | dose: 670.0 mg/kg/injection, schedule: Q01DX001 (ip), vehicle: carboxymethylcellulose (CMC) 101 % of control and 107 % of control | dose: 1000.0 mg/kg/injection, schedule: Q01DX001 (ip), vehicle: carboxymethylcellulose (CMC) 103 % of control and 110 % of control

NS(=O)(=O)c1cc[n+]([O-])c2ccccc12
inactive: dose: 100.0 mg/kg/injection, schedule: Q01DX001 (ip), vehicle: saline with Tween-80 97 % of control | dose: 100.0 mg/kg/injection, schedule: Q01DX009 (ip), vehicle: saline with Tween-80 96 % of control | dose: 200.0 mg/kg/injection, schedule: Q01DX001 (ip), vehicle: saline with Tween-80 97 % of control | dose: 200.0 mg/kg/injection, schedule: Q01DX009 (ip), vehicle: saline with Tween-80 94 % of control | dose: 400.0 mg/kg/injection, schedule: Q01DX001 (ip), vehicle: saline with Tween-80 96 % of control

CCCCCC(CC)C(CC)CO (stereo not drawn)
inactive: dose: 15.0 mg/kg/injection, schedule: Q01DX001 (ip), vehicle: carboxymethylcellulose (CMC) 95 % of control | dose: 30.0 mg/kg/injection, schedule: Q01DX001 (ip), vehicle: carboxymethylcellulose (CMC) 96 % of control | dose: 60.0 mg/kg/injection, schedule: Q01DX001 (ip), vehicle: carboxymethylcellulose (CMC) 96 % of control

CN(C)c1ccc(/C=C/C(=O)c2ccc([N+](=O)[O-])cc2)c(Cl)c1
inactive: dose: 100.0 mg/kg/injection, schedule: Q04DX003 (ip), vehicle: Klucel (hydroxypropylcellulose) (HPC) 92 % of control | dose: 200.0 mg/kg/injection, schedule: Q04DX003 (ip), vehicle: Klucel (hydroxypropylcellulose) (HPC) 97 % of control | dose: 400.0 mg/kg/injection, schedule: Q04DX003 (ip), vehicle: Klucel (hydroxypropylcellulose) (HPC) 97 % of control
